Assay results taken from US10273222B2 (CELGENE QUANTICEL RESEARCH, INC., priority 2013, dated 2019).

Assays:
JMJD2C = JMJD2C (Homo sapiens (Human), UniProt Q9H3R0); experiment: JMJD2C in vitro enzyme inhibition assay (TR-FRET); type: biochemical
Method: This assay determines the ability of a test compound to inhibit Jarid1A, Jarid1B, JMJD2C, and JMJD2A demethylase activity. […] Baculovirus expressed JMJD2C (GenBank Accession #BC143571, AA 2-372) was purchased from BPS Bioscience (Cat#50105).
The ability of test compounds to inhibit the activity of JMJD2C was determined in 384-well plate format under the following reaction conditions: 0.3 nM JMJD2C, 300 nM H3K9me3-biotin labeled peptide (Anaspec cat #64360), 2 μM alpha-ketoglutaric acid in assay buffer of 50 mM HEPES, pH7.3, 0.005% Brij35, 0.5 mM TCEP, 0.2 mg/ml BSA, 50 μM sodium L-ascorbate, and 2 μM ammonium iron(II) sulfate. Reaction product was determined quantitatively by TR-FRET after the addition of detection reagent Phycolink Streptavidin-allophycocyanin (Prozyme) and Europium-anti-di-methylated histone H3 lysine 9 (H3K9me2) antibody (PerkinElmer) in the presence of 5 mM EDTA in LANCE detection buffer (PerkinElmer) at a final concentration of 50 nM and 1 nM, respectively.
The assay reaction was initiated by the following: 2 μl of the mixture of 900 nM H3K9me3-biotin labeled peptide and 6 μM alpha-ketoglutaric acid with 2 μl of 11-point serial diluted inhibitor in 3% DMSO were added to each well of the plate, followed by the addition of 2 μl of 0.9 nM JMJD2C to initiate the reaction. The reaction mixture was incubated at room temperature for 30 minutes, and terminated by the addition of 6 μl of 5 mM EDTA in LANCE detection buffer containing 100 nM Phycolink Streptavidin-allophycocyanin and 2 nM Europium-anti-H3K9me2 antibody. Plates were read by EnVisionMultilabel Reader in TR-FRET mode (excitation at 320 nm, emission at 615 nm and 665 nm) after 1 hour incubation at room temperature. A ratio was calculated (665/615) for each well and fitted to determine inhibition constant (IC50).

FBXL10 = FBXL10 (Homo sapiens (Human), UniProt Q8NHM5); experiment: FBXL10 in vitro enzyme inhibition assay (AlphaScreen); type: biochemical
Method: Reaction product was determined quantitatively by AlphaScreen detection after the addition of detection reagents anti-H3K36me1 antibody, AlphaScreen® Streptavidin-coated Donor beads, and AlphaScreen® Protein A Acceptor beads in 50 mM HEPES, pH7.3, 10 mM NaCl, 0.005% Brij35, 5 mM EDTA, 2 mg/ml BSA to final 10 μg/ml beads.
Plates were incubated at room temperature for 40 minutes, followed by addition of 3 μl of 50 μg/ml AlphaScreen® Streptavidin-coated Donor beads and AlphaScreen® Protein A Acceptor beads in 50 mM HEPES, pH7.3, 10 mM NaCl, 0.005% Brij35, 5 mM EDTA, 2 mg/ml BSA. Plates were read by EnVisionMultilabel Reader in AlphaScreen mode after a minimum of 2 hour or up to overnight incubation at room temperature. The AlphaScreen signal for each well was used to determine inhibition constant (IC50).

JMJD2C, sequence (Q9H3R0 2-372): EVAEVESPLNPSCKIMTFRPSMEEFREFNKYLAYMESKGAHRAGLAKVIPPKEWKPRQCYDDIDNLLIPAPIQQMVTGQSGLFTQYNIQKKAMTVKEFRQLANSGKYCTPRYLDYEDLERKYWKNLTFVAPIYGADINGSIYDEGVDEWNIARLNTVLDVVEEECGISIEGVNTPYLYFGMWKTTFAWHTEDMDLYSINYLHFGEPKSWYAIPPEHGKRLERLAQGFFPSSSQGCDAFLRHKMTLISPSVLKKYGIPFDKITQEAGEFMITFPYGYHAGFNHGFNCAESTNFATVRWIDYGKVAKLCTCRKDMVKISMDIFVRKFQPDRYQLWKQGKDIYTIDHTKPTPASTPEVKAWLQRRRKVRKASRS
FBXL10, sequence (Q8NHM5 1-650): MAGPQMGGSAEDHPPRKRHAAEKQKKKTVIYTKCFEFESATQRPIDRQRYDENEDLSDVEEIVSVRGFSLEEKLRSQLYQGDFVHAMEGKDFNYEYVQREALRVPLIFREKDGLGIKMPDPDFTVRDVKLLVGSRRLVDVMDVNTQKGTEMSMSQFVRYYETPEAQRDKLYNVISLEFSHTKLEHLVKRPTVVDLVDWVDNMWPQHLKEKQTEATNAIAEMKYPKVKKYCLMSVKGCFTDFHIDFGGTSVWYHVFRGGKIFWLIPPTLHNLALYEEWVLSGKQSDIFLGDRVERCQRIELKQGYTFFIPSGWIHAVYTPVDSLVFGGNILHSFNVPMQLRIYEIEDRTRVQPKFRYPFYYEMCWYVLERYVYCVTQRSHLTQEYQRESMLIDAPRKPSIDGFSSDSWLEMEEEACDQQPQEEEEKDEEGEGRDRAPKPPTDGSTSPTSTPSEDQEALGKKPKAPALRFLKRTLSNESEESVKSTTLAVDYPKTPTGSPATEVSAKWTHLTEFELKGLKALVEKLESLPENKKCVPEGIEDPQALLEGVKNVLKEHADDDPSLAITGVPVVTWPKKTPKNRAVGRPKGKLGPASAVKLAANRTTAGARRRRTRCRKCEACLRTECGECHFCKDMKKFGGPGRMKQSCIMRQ

In the case of `Cn1cnc(-c2cc(-c3nn[nH]n3)ccn2)c1-c1ccc(F)c(C(=O)NCc2ccccc2)c1` [Example 65, N-benzyl-2-fluoro-5-[3-methyl-5-[4-(2H-tetrazol-5-yl)pyridin-2-yl]imidazol-4-yl]benzamide], the IC50 (JMJD2C) is reported as 1000 to 10000 nM and the IC50 (FBXL10) is reported as ≤ 100 nM.

In the case of `O=C(O)c1ccnc(-c2cn(Cc3cccc(C(F)(F)F)c3)cn2)c1` [Example 117, 2-[1-[[3-(trifluoromethyl)phenyl]methyl]imidazol-4-yl]pyridine-4-carboxylic acid], the IC50 (JMJD2C) is reported as 100 to 1000 nM and the IC50 (FBXL10) is reported as ≤ 100 nM.

`Cn1cnc(-c2cc(C(=O)O)ccn2)c1-c1cc(F)c(F)cc1OCC1CC1` [Example 121, 2-[5-[2-(cyclopropylmethoxy)-4,5-difluorophenyl]-1-methylimidazol-4-yl]pyridine-4-carboxylic acid] was tested, and the IC50 (JMJD2C) was 1000 to 10000 nM and the IC50 (FBXL10) was ≤ 100 nM.

With `Cn1cnc(-c2cc(C(=O)O)ccn2)c1-c1c(F)cccc1OCC1CC1` [Example 122, 2-[5-[2-(cyclopropylmethoxy)-6-fluorophenyl]-1-methylimidazol-4-yl]pyridine-4-carboxylic acid] the IC50 (JMJD2C) was 1000 to 10000 nM and the IC50 (FBXL10) was ≤ 100 nM.

In the case of `Cc1ccc(OCC2CC2)c(-c2c(-c3cc(C(=O)O)ccn3)ncn2C)c1` [Example 123, 2-[5-[2-(cyclopropylmethoxy)-5-methylphenyl]-1-methylimidazol-4-yl]pyridine-4-carboxylic acid], the IC50 (JMJD2C) is reported as 1000 to 10000 nM and the IC50 (FBXL10) is reported as 100 to 1000 nM.

`O=C(O)c1ccnc(-c2ncn(CCc3ccccc3Cl)c2-c2ccc(F)cc2)c1` [Example 124, 2-[1-[2-(2-chlorophenyl)ethyl]-5-(4-fluorophenyl)imidazol-4-yl]pyridine-4-carboxylic acid] was tested, and the IC50 (JMJD2C) was 100 to 1000 nM and the IC50 (FBXL10) was ≤ 100 nM.

`O=C(O)c1ccnc(-c2ncn(CC3CC3)c2-c2ccc(F)cc2)c1` [Example 125, 2-[1-(cyclopropylmethyl)-5-(4-fluorophenyl)imidazol-4-yl]pyridine-4-carboxylic acid] was tested, and the IC50 (JMJD2C) was 100 to 1000 nM and the IC50 (FBXL10) was ≤ 100 nM.

In the case of `O=C(O)c1ccnc(-c2ncn(CC3CC3)c2-c2ccc(Cl)cc2)c1` [Example 126, 2-[5-(4-chlorophenyl)-1-(cyclopropylmethyl)imidazol-4-yl]pyridine-4-carboxylic acid], the IC50 (JMJD2C) is reported as 1000 to 10000 nM and the IC50 (FBXL10) is reported as ≤ 100 nM.

With `O=C(O)c1ccnc(-c2ncn(Cc3ccccc3Cl)c2-c2ccc(F)cc2)c1` [Example 127, 2-[1-[(2-chlorophenyl)methyl]-5-(4-fluorophenyl)imidazol-4-yl]pyridine-4-carboxylic acid] the IC50 (JMJD2C) was 1000 to 10000 nM and the IC50 (FBXL10) was ≤ 100 nM.

With `CCOc1ccccc1CCn1cnc(-c2cc(-c3nn[nH]n3)ccn2)c1` [Example 128, 2-[1-[2-(2-ethoxyphenyl)ethyl]imidazol-4-yl]-4-(2H-tetrazol-5-yl)pyridine] the IC50 (JMJD2C) was 1000 to 10000 nM and the IC50 (FBXL10) was ≤ 100 nM.

With `Clc1cccc(Cn2cnc(-c3cc(-c4nn[nH]n4)ccn3)c2)c1` [Example 130, 2-[1-[(3-chlorophenyl)methyl]imidazol-4-yl]-4-(2H-tetrazol-5-yl)pyridine] the IC50 (JMJD2C) was 1000 to 10000 nM and the IC50 (FBXL10) was ≤ 100 nM.

`Clc1ccc(Cn2cnc(-c3cc(-c4nn[nH]n4)ccn3)c2)cc1` [Example 131, 2-[1-[(4-chlorophenyl)methyl]imidazol-4-yl]-4-(2H-tetrazol-5-yl)pyridine] was tested, and the IC50 (JMJD2C) was 1000 to 10000 nM and the IC50 (FBXL10) was ≤ 100 nM.

`Fc1ccc(-c2c(-c3cc(-c4nn[nH]n4)ccn3)ncn2CCc2ccccc2Cl)cc1` [Example 132, 2-[1-[2-(2-chlorophenyl)ethyl]-5-(4-fluorophenyl)imidazol-4-yl]-4-(2H-tetrazol-5-yl)pyridine] was tested, and the IC50 (JMJD2C) was 1000 to 10000 nM and the IC50 (FBXL10) was ≤ 100 nM.

`Clc1ccc(-c2c(-c3cc(-c4nn[nH]n4)ccn3)ncn2CCc2ccccc2Cl)cc1` [Example 133, 2-[5-(4-chlorophenyl)-1-[2-(2-chlorophenyl)ethyl]imidazol-4-yl]-4-(2H-tetrazol-5-yl)pyridine] showed an IC50 (JMJD2C) of 1000 to 10000 nM and an IC50 (FBXL10) of 100 to 1000 nM.

In the case of `Fc1ccc(-c2c(-c3cc(-c4nn[nH]n4)ccn3)ncn2CC(F)(F)F)cc1` [Example 134, 2-[5-(4-fluorophenyl)-1-(2,2,2-trifluoroethyl)imidazol-4-yl]-4-(2H-tetrazol-5-yl)pyridine], the IC50 (JMJD2C) is reported as 1000 to 10000 nM and the IC50 (FBXL10) is reported as ≤ 100 nM.

`Fc1ccc(-c2c(-c3cc(-c4nn[nH]n4)ccn3)ncn2CC2CC2)cc1` [Example 135, 2-[1-(cyclopropylmethyl)-5-(4-fluorophenyl)imidazol-4-yl]-4-(2H-tetrazol-5-yl)pyridine] was tested, and the IC50 (JMJD2C) was 1000 to 10000 nM and the IC50 (FBXL10) was ≤ 100 nM.

For `Clc1ccc(-c2c(-c3cc(-c4nn[nH]n4)ccn3)ncn2CC2CC2)cc1` [Example 136, 2-[5-(4-chlorophenyl)-1-(cyclopropylmethyl)imidazol-4-yl]-4-(2H-tetrazol-5-yl)pyridine], the IC50 (JMJD2C) was 1000 to 10000 nM and the IC50 (FBXL10) was ≤ 100 nM.

For `Fc1ccc(-c2c(-c3cc(-c4nn[nH]n4)ccn3)ncn2Cc2ccccc2Cl)cc1` [Example 137, 2-[1-[(2-chlorophenyl)methyl]-5-(4-fluorophenyl)imidazol-4-yl]-4-(2H-tetrazol-5-yl)pyridine], the IC50 (JMJD2C) was 1000 to 10000 nM and the IC50 (FBXL10) was ≤ 100 nM.

In the case of `CC(=O)OCn1nnc(-c2ccnc(-c3ncn(Cc4ccccc4Cl)c3-c3ccc(F)cc3)c2)n1` [Example 138, [5-[2-[1-[(2-chlorophenyl)methyl]-5-(4-fluorophenyl)imidazol-4-yl]pyridin-4-yl]tetrazol-2-yl]methyl acetate], the IC50 (JMJD2C) is reported as 1000 to 10000 nM and the IC50 (FBXL10) is reported as 1000 to 10000 nM.

For `CC(C)(C)C(=O)OCn1nnc(-c2ccnc(-c3ncn(Cc4ccccc4Cl)c3-c3ccc(F)cc3)c2)n1` [Example 139, [5-[2-[1-[(2-chlorophenyl)methyl]-5-(4-fluorophenyl)imidazol-4-yl]pyridin-4-yl]tetrazol-2-yl]methyl 2,2-dimethylpropanoate], the IC50 (JMJD2C) was 1000 to 10000 nM and the IC50 (FBXL10) was 1000 to 10000 nM.

`c1ccc2c(c1)CCC(Cn1cnc(-c3cc(-c4nn[nH]n4)ccn3)c1)C2` (stereo not shown) [Example 146, 2-[1-(1,2,3,4-tetrahydronaphthalen-2-ylmethyl)imidazol-4-yl]-4-(2H-tetrazol-5-yl)pyridine] was tested, and the IC50 (JMJD2C) was 1000 to 10000 nM and the IC50 (FBXL10) was ≤ 100 nM.

`c1ccc2c(c1)CC(Cn1cnc(-c3cc(-c4nn[nH]n4)ccn3)c1)C2` [Example 147, 2-[1-(2,3-dihydro-1H-inden-2-ylmethyl)imidazol-4-yl]-4-(2H-tetrazol-5-yl)pyridine] was tested, and the IC50 (JMJD2C) was 1000 to 10000 nM and the IC50 (FBXL10) was ≤ 100 nM.

With `Cn1cnc(-c2cc(-c3nn[nH]n3)ccn2)c1-c1ccc(F)cc1OCc1ccccc1` [Example 148, 2-[5-(4-fluoro-2-phenylmethoxyphenyl)-1-methylimidazol-4-yl]-4-(2H-tetrazol-5-yl)pyridine] the IC50 (JMJD2C) was 1000 to 10000 nM and the IC50 (FBXL10) was ≤ 100 nM.

For `CCCCOc1cc(F)ccc1-c1c(-c2cc(-c3nn[nH]n3)ccn2)ncn1C` [Example 149, 2-[5-(2-butoxy-4-fluorophenyl)-1-methylimidazol-4-yl]-4-(2H-tetrazol-5-yl)pyridine], the IC50 (JMJD2C) was 1000 to 10000 nM and the IC50 (FBXL10) was ≤ 100 nM.

In the case of `Clc1cccc(Cl)c1Cn1cnc(-c2cc(-c3nn[nH]n3)ccn2)c1` [Example 151, 2-[1-[(2,6-dichlorophenyl)methyl]imidazol-4-yl]-4-(2H-tetrazol-5-yl)pyridine], the IC50 (JMJD2C) is reported as 1000 to 10000 nM and the IC50 (FBXL10) is reported as ≤ 100 nM.

In the case of `FC(F)(F)COc1ccccc1Cn1cnc(-c2cc(-c3nn[nH]n3)ccn2)c1` [Example 152, 4-(2H-tetrazol-5-yl)-2-[1-[[2-(2,2,2-trifluoroethoxy)phenyl]methyl]imidazol-4-yl]pyridine], the IC50 (JMJD2C) is reported as 1000 to 10000 nM and the IC50 (FBXL10) is reported as ≤ 100 nM.

`CC(C)COc1ccccc1Cn1cnc(-c2cc(-c3nn[nH]n3)ccn2)c1` [Example 153, 2-[1-[[2-(2-methylpropoxy)phenyl]methyl]imidazol-4-yl]-4-(2H-tetrazol-5-yl)pyridine] was tested, and the IC50 (JMJD2C) was 1000 to 10000 nM and the IC50 (FBXL10) was 100 to 1000 nM.

In the case of `c1ccc2c(Cn3cnc(-c4cc(-c5nn[nH]n5)ccn4)c3)cccc2c1` [Example 155, 2-[1-(naphthalen-1-ylmethyl)imidazol-4-yl]-4-(2H-tetrazol-5-yl)pyridine], the IC50 (JMJD2C) is reported as 1000 to 10000 nM and the IC50 (FBXL10) is reported as ≤ 100 nM.

`FC(F)(F)Oc1ccccc1Cn1cnc(-c2cc(-c3nn[nH]n3)ccn2)c1` [Example 156, 4-(2H-tetrazol-5-yl)-2-[1-[[2-(trifluoromethoxy)phenyl]methyl]imidazol-4-yl]pyridine] was tested, and the IC50 (JMJD2C) was 1000 to 10000 nM and the IC50 (FBXL10) was ≤ 100 nM.

In the case of `CC(c1ccccc1Cl)n1cnc(-c2cc(-c3nn[nH]n3)ccn2)c1` (stereo not shown) [Example 157, 2-[1-[1-(2-chlorophenyl)ethyl]imidazol-4-yl]-4-(2H-tetrazol-5-yl)pyridine], the IC50 (JMJD2C) is reported as 1000 to 10000 nM and the IC50 (FBXL10) is reported as ≤ 100 nM.

For `Clc1cccc(Cn2cnc(-c3cc(-c4nn[nH]n4)ccn3)c2)c1Cl` [Example 158, 2-[1-[(2,3-dichlorophenyl)methyl]imidazol-4-yl]-4-(2H-tetrazol-5-yl)pyridine], the IC50 (JMJD2C) was 1000 to 10000 nM and the IC50 (FBXL10) was ≤ 100 nM.

`Cn1cnc(-c2cc(-c3nn[nH]n3)ccn2)c1-c1ccc(F)c(OCC(F)(F)F)c1` [Example 159, 2-[5-[4-fluoro-3-(2,2,2-trifluoroethoxy)phenyl]-1-methylimidazol-4-yl]-4-(2H-tetrazol-5-yl)pyridine] gave an IC50 (JMJD2C) of 1000 to 10000 nM and an IC50 (FBXL10) of 100 to 1000 nM.

For `Cn1cnc(-c2cc(-c3nn[nH]n3)ccn2)c1-c1ccc(F)c(OCc2ccccc2)c1` [Example 160, 2-[5-(4-fluoro-3-phenylmethoxyphenyl)-1-methylimidazol-4-yl]-4-(2H-tetrazol-5-yl)pyridine], the IC50 (JMJD2C) was 1000 to 10000 nM and the IC50 (FBXL10) was ≤ 100 nM.

With `Cn1cnc(-c2cc(-c3nn[nH]n3)ccn2)c1-c1ccc(Cl)c(OCc2ccccc2)c1` [Example 161, 2-[5-(4-chloro-3-phenylmethoxyphenyl)-1-methylimidazol-4-yl]-4-(2H-tetrazol-5-yl)pyridi] the IC50 (FBXL10) was ≤ 100 nM.
